Test results: patent US7022693B2, “Treatment of lipodystrophy” (Ark Therapeutics Ltd., priority 2001, dated 2006)

Tested on: ACE activity in T-cells
Test: ACE activity in T-cells after administration of a protease inhibitor
Format: cell-based

With `CC(C)C[C@H](NC(=O)[C@@H](O)[C@H](N)Cc1ccccc1)C(=O)O` [bestatin] the “ACE activity in T-cells” value was “increased ACE activity”.
